Assay: Supersaturation relative to the intrinsic solubility of the compound
Type: physicochemical
Protocol: A concentrated solution 1 of (S)-1-(3-(((4-amino-2,2-dioxido-1H-benzo[c][1,2,6]thiadiazin-5-yl)oxy)methyl)piperidin-1-yl)-3-methylbutan-1-one at 0.3% (w/w) (3000 ppm) was prepared in water. pH was adjusted to 11 using NaOH to form (S)-1-(3-(((4-amino-2,2-dioxido-1H-benzo[c][1,2,6]thiadiazin-5-yl)oxy)methyl)piperidin-1-yl)-3-methylbutan-1-one sodium salt and obtain an homogeneous solution. Next, a syrup was prepared by mixing an aqueous solution of High Fructose Corn Syrup (HFCS), citric acid and deionized water. The final syrup contained 34% fructose, 0.68% citric acid, 0.1% sodium citrate and 65.22% water, with a pH of 2. An aliquot of solution 1 was diluted 100 times with the syrup to yield a final concentration of 30 ppm of (S)-1-(3-(((4-amino-2,2-dioxido-1H-benzo[c][1,2,6]thiadiazin-5-yl)oxy)methyl)piperidin-1-yl)-3-methylbutan-1-one, i.e. about 18 times above the intrinsic solubility of the compound at 3° C. The sample was kept at 3° C. and the amount of (S)-1-(3-(((4-amino-2,2-dioxido-1H-benzo[c][1,2,6]thiadiazin-5-yl)oxy)methyl)piperidin-1-yl)-3-methylbutan-1-one was measured by UV spectroscopy as a function of time. The amount of (S)-1-(3-(((4-amino-2,2-dioxido-1H-benzo[c][1,2,6]thiadiazin-5-yl)oxy)methyl)piperidin-1-yl)-3-methylbutan-1-one was reduced to 28 ppm after 1 week and first crystals were visually observed. […]
A concentrated solution 1 of (S)-1-(3-(((4-amino-2,2-dioxido-1H-benzo[c][1,2,6]thiadiazin-5-yl)oxy)methyl)piperidin-1-yl)-3-methylbutan-1-one at […] was prepared in water. pH was adjusted to 11 using NaOH to form (S)-1-(3-(((4-amino-2,2-dioxido-1H-benzo[c][1,2,6]thiadiazin-5-yl)oxy)methyl)piperidin-1-yl)-3-methylbutan-1-one sodium salt and obtain an homogeneous solution. […] The sample was kept at 3° C. and the amount of (S)-1-(3-(((4-amino-2,2-dioxido-1H-benzo[c][1,2,6]thiadiazin-5-yl)oxy)methyl)piperidin-1-yl)-3-methylbutan-1-one was measured by UV spectroscopy as a function of time. […]

times above the intrinsic solubility of the compound (final concentration of 18 ppm, at 3° C.): about 11 times
times above the intrinsic solubility of the compound (final concentration of 30 ppm, at 3° C.): about 18 times
times above the intrinsic solubility of the compound (final concentration of 100 ppm, at 20° C.): about 15 times
SMILES: CC(C)CC(=O)N1CCC[C@H](COc2cccc3c2C(N)=NS(=O)(=O)N3)C1 [(S)-1-(3-(((4-amino-2,2-dioxido-1H-benzo[c][1,2,6]thiadiazin-5-yl)oxy)methyl)piperidin-1-yl)-3-methylbutan-1-one]
